We go through 35 compounds from US9505762B2, “Purine derivatives as CB2 receptor agonists” (Hoffmann-La Roche Inc., priority 2013, dated 2016).

In one experiment the target is human CB2 receptors (Homo sapiens (Human), UniProt P34972). Kind of experiment: functional cAMP assay, CB2. Type of experiment: cell-based. To be noted: CHO cells expressing human CB2. As to the method: (§1) The growth medium was exchanged with Krebs Ringer Bicarbonate buffer with 1 mM IBMX and incubated at 30° C. for 30 min. Compounds were added to a final assay volume of 100 μl and incubated for 30 min at 30° C. Using the cAMP-Nano-TRF detection kit the assay (Roche Diagnostics) was stopped by the addition of 50 μl lysis reagent (Tris, NaCl, 1.5% Triton X100, 2.5% NP40, 10% NaN3) and 50 μl detection solutions (20 μM mAb Alexa700-cAMP 1:1, and 48 μM Ruthenium-2-AHA-cAMP) and shaken for 2 h at room temperature. The time-resolved energy transfer is measured by a TRF reader (Evotec Technologies GmbH), equipped with a ND:YAG laser as excitation source. The plate is measured twice with the excitation at 355 nm and at the emission with a delay of 100 ns and a gate of 100 ns, total exposure time 10 s at 730 (bandwidth 30 nm) or 645 nm (bandwidth 75 nm), respectively.
(§2) EC50 values were determined using Activity Base analysis (ID Business Solution, Limited).

A further experiment addresses human CB1 receptors (Homo sapiens (Human), UniProt P21554). Kind of experiment: functional cAMP assay, CB1. Type of experiment: cell-based. As to conditions: CHO cells expressing human CB1. As to the method: as §1, §2
For orientation: cAMP levels reflect the balance of adenylyl cyclase and phosphodiesterase activity.

Chain of human CB1 receptors (P21554 whole entry): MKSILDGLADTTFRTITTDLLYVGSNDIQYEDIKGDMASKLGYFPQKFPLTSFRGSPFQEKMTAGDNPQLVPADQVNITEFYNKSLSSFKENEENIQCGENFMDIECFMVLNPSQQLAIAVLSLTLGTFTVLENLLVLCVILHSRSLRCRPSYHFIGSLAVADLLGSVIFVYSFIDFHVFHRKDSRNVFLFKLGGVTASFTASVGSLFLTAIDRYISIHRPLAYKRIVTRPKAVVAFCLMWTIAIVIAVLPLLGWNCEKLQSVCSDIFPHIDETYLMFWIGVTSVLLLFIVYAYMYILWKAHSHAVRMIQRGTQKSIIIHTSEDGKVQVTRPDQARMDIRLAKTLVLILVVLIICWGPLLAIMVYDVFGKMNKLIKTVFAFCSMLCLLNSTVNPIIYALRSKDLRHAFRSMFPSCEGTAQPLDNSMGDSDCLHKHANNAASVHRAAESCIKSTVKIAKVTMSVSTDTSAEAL
Chain of human CB2 receptors (P34972 whole entry): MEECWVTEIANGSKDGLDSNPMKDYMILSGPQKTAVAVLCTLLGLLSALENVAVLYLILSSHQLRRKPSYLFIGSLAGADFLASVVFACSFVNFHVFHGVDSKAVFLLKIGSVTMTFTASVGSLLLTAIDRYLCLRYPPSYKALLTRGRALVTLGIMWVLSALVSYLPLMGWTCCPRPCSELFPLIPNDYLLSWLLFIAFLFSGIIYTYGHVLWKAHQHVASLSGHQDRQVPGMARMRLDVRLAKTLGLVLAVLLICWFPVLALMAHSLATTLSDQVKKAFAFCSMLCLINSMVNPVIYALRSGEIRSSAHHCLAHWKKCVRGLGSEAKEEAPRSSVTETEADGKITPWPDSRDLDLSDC

Usually EC50 stands for the concentration giving half of the maximal effect. Low values mean higher potency in that assay, high ones lower potency in that assay. Turning to `CC(C)(C)c1nc(N2CCC(F)(F)C2)c2ncn(Cc3ccc(Cl)cc3)c2n1` [Example 1, 2-Tert-Butyl-9-[(4-Chlorophenyl)Methyl]-6-(3,3-Difluoropyrrolidin-1-Yl)Purine], the EC50 at human CB2 receptors is 0.0116 µM; on human CB1 receptors, more than 10 µM.

Turning to `CC(C)(C)c1nc(N2CCC(F)(F)C2)c2ncn(Cc3ccccc3Cl)c2n1` [Example 2, 2-tert-butyl-9-[(2-chlorophenyl)methyl]-6-(3,3-difluoropyrrolidin-1-yl)purine], at human CB2 receptors, the response was half-maximal at 0.0006 µM (EC50).

Take `Cc1ccc(Cn2cnc3c(N4CCC(F)(F)C4)nc(C(C)(C)C)nc32)cc1` [Example 3, 2-tert-butyl-6-(3,3-difluoropyrrolidin-1-yl)-9-[(4-methylphenyl)methyl]purine]: on human CB1 receptors, the EC50 was more than 10 µM.

On to `CC(C)(C)c1nc(N2CCC(F)(F)C2)c2ncn(Cc3ccc(F)cc3Cl)c2n1` [Example 4, 2-tert-butyl-9-[(2-chloro-4-fluorophenyl)methyl]-6-(3,3-difluoropyrrolidin-1-yl)purine], for which the values for the EC50 on human CB2 receptors and on human CB1 receptors were 0.0031 µM and more than 10 µM, respectively.

For the compound `CC(C)(C)c1nc(N2CCC(F)(F)C2)c2ncn(Cc3ccccc3C(F)(F)F)c2n1` [Example 5, 2-tert-butyl-6-(3,3-difluoropyrrolidin-1-yl)-9-[[2-(trifluoromethyl)phenyl]methyl]purine], the EC50 at human CB2 receptors is 0.0007 µM.

`CC(C)(C)c1nc(N2CCC(F)(F)C2)c2ncn(Cc3cccnc3Cl)c2n1` [Example 6, 2-tert-butyl-9-[(2-chloropyridin-3-yl)methyl]-6-(3,3-difluoropyrrolidin-1-yl)purine]: the midpoint of the response on human CB2 receptors, the EC50, lay at 0.0005 µM.

For the compound `Cc1noc(Cn2cnc3c(N4CCC(F)(F)C4)nc(C(C)(C)C)nc32)n1` [Example 7, 5-[[2-tert-butyl-6-(3,3-difluoropyrrolidin-1-yl)purin-9-yl]methyl]-3-methyl-1,2,4-oxadiazole], the values for the EC50 on human CB2 receptors and on human CB1 receptors were 0.0347 µM and more than 10 µM, respectively.

Consider `CC(C)(C)c1nc(N2CCC(F)(F)C2)c2ncn(CC3CCCCC3)c2n1` [Example 8, 2-tert-butyl-9-(cyclohexylmethyl)-6-(3,3-difluoropyrrolidin-1-yl)purine], for which the results for the EC50 on human CB2 receptors and on human CB1 receptors were 0.0753 µM and more than 10 µM, respectively.

For the compound `CCn1cnc2c(N3CCC(F)(F)C3)nc(C(C)(C)C)nc21` [Example 9, 2-tert-butyl-6-(3,3-difluoropyrrolidin-1-yl)-9-ethylpurine], the EC50 was 0.0488 µM at human CB2 receptors and more than 10 µM on human CB1 receptors.

`CCCn1cnc2c(N3CCC(F)(F)C3)nc(C(C)(C)C)nc21` [Example 10, 2-tert-butyl-6-(3,3-difluoropyrrolidin-1-yl)-9-propylpurine] displayed an EC50 at human CB1 receptors of more than 10 µM.

With `Cc1nnc(Cn2cnc3c(N4CCC(F)(F)C4)nc(C(C)(C)C)nc32)o1` [Example 11, 2-[[2-tert-butyl-6-(3,3-difluoropyrrolidin-1-yl)purin-9-yl]methyl]-5-methyl-1,3,4-oxadiazole], the EC50 at human CB2 receptors was 0.0617 µM; at human CB1 receptors it was more than 10 µM.

`CC(C)(C)c1nc(N2CCC(F)(F)C2)c2ncn(C3CCOC3)c2n1` (centres unmarked) [Example 12, 2-tert-butyl-6-(3,3-difluoropyrrolidin-1-yl)-9-(oxolan-3-yl)purine]: the EC50 on human CB2 receptors is 0.0031 µM; at human CB1 receptors, more than 10 µM.

In the case of `CC(C)(C)c1nc(N2CCC(F)(F)C2)c2ncn(CCc3ccccc3)c2n1` [Example 13, 2-tert-butyl-6-(3,3-difluoropyrrolidin-1-yl)-9-(2-phenylethyl)purine], the EC50 on human CB2 receptors was determined as 0.0054 µM.

Regarding `Cn1nnnc1Cn1cnc2c(N3CCC(F)(F)C3)nc(C(C)(C)C)nc21` [Example 14, 2-tert-butyl-6-(3,3-difluoropyrrolidin-1-yl)-9-[(1-methyltetrazol-5-yl)methyl]purine], the EC50 at human CB2 receptors is 0.023 µM; at human CB1 receptors, more than 10 µM.

As to `COCCn1cnc2c(N3CCC(F)(F)C3)nc(C(C)(C)C)nc21` [Example 15, 2-tert-butyl-6-(3,3-difluoropyrrolidin-1-yl)-9-(2-methoxyethyl)purine], on human CB1 receptors, the EC50 was more than 10 µM.

Regarding `Cc1nonc1Cn1cnc2c(N3CCC(F)(F)C3)nc(C(C)(C)C)nc21` [Example 16, 3-[[2-tert-butyl-6-(3,3-difluoropyrrolidin-1-yl)purin-9-yl]methyl]-4-methyl-1,2,5-oxadiazole], the EC50 was 0.006 µM at human CB2 receptors and more than 10 µM on human CB1 receptors.

On to `CC(C)(C)c1nc(N2CCC(F)(F)C2)c2ncn(CCC(F)(F)F)c2n1` [Example 19, 2-tert-butyl-6-(3,3-difluoropyrrolidin-1-yl)-9-(3,3,3-trifluoropropyl)purine], for which the EC50 at human CB1 receptors is more than 10 µM.

In the case of `CC(C)(C)c1nc(N2CCC(O)C2)c2ncn(Cc3ccc(Cl)cc3)c2n1` (centres unmarked) [Example 26, 1-[2-tert-butyl-9-[(4-chlorophenyl)methyl]purin-6-yl]pyrrolidin-3-ol], at human CB1 receptors, the EC50 was more than 10 µM.

As to `CCCn1cnc2c(N3CCC(O)C3)nc(C(C)(C)C)nc21` (centres unmarked) [Example 36, 1-(2-tert-butyl-9-propylpurin-6-yl)pyrrolidin-3-ol], at human CB1 receptors, the EC50 is more than 10 µM.

`CC(C)(C)c1nc(N2CCC(F)(F)C2)c2ncn(Cc3c[nH]nc3C(F)(F)F)c2n1` [Example 41, 2-tert-butyl-6-(3,3-difluoropyrrolidin-1-yl)-9-[[3-(trifluoromethyl)-1H-pyrazol-4-yl]methyl]purine] had an EC50 on human CB2 receptors of 0.0092 µM.

`CC(=O)N[C@H]1CCN(c2nc(C(C)(C)C)nc3c2ncn3Cc2ccccc2Cl)C1` [Example 48, N—{(S)-1-[2-tert-Butyl-9-(2-chloro-benzyl)-9H-purin-6-yl]-pyrrolidin-3-yl}-acetamide] yielded an EC50 at human CB1 receptors of more than 10 µM.

For `CC(=O)N[C@H]1CCN(c2nc(C(C)(C)C)nc3c2ncn3Cc2nonc2C)C1` [Example 55, N—[(S)-1-[2-tert-butyl-9-[(4-methyl-1,2,5-oxadiazol-3-yl)methyl]purin-6-yl]pyrrolidin-3-yl]acetamide], the 50% effective concentration (EC50) at human CB1 receptors was more than 10 µM.

`CC1(O)CCN(c2nc(C(C)(C)C)nc3c2ncn3Cc2ccc(Cl)cc2)C1` (centres unmarked) [Example 66, 1-[2-tert-butyl-9-[(4-chlorophenyl)methyl]purin-6-yl]-3-methylpyrrolidin-3-ol]: the EC50 at human CB1 receptors is more than 10 µM.

Regarding `Cc1nonc1Cn1cnc2c(N3CCC(C)(O)C3)nc(C(C)(C)C)nc21` (centres unmarked) [Example 70, 1-[2-tert-butyl-9-[(4-methyl-1,2,5-oxadiazol-3-yl)methyl]purin-6-yl]-3-methylpyrrolidin-3-ol], the EC50 on human CB1 receptors is more than 10 µM.

Consider `COCCn1cnc2c(N3CCC(C)(O)C3)nc(C(C)(C)C)nc21` (centres unmarked) [Example 71, 1-[2-tert-butyl-9-(2-methoxyethyl)purin-6-yl]-3-methylpyrrolidin-3-ol], for which, at human CB1 receptors, the EC50 was more than 10 µM.

As for `CC(C)(C)c1nc(N2CC(F)(F)C(F)(F)C2)c2ncn(Cc3ccccc3Cl)c2n1` [Example 72, 2-tert-butyl-9-[(2-chlorophenyl)methyl]-6-(3,3,4,4-tetrafluoropyrrolidin-1-yl)purine], on human CB1 receptors, the EC50 was more than 10 µM.

For the compound `Cc1nonc1Cn1cnc2c(N3CC(F)(F)C(F)(F)C3)nc(C(C)(C)C)nc21` [Example 82, 3-[[2-tert-butyl-6-(3,3,4,4-tetrafluoropyrrolidin-1-yl)purin-9-yl]methyl]-4-methyl-1,2,5-oxadiazole], on human CB1 receptors, the EC50 was more than 10 µM.

On human CB1 receptors, `CC(C)(C)c1nc(N2CC[C@H](O)C2)c2ncn(Cc3ccc(Cl)cc3)c2n1` [Example 88, (3S)-1-[2-tert-butyl-9-[(4-chlorophenyl)methyl]purin-6-yl]pyrrolidin-3-ol] displayed an EC50 of more than 10 µM.

The compound `Cc1nnc(Cn2cnc3c(N4CCC(F)(F)C4)nc(NC(C)(C)C)nc32)o1` [Example 109, N-tert-butyl-6-(3,3-difluoropyrrolidin-1-yl)-9-[(5-methyl-1,3,4-oxadiazol-2-yl)methyl]purin-2-amine] had an EC50 on human CB1 receptors of more than 10 µM.

In the case of `CC(C)(C)Nc1nc(N2CC[C@H](O)C2)c2ncn(Cc3c[nH]nc3C(F)(F)F)c2n1` [Example 122, (3S)-1-[2-(tert-butylamino)-9-[[3-(trifluoromethyl)-1H-pyrazol-4-yl]methyl]purin-6-yl]pyrrolidin-3-ol], the EC50 on human CB1 receptors was more than 10 µM.

On to `CC(C)(C)Nc1nc(N2CC3(COC3)C2)c2ncn(Cc3ccccc3C(F)(F)F)c2n1` [Example 137, N-tert-butyl-6-(2-oxa-6-azaspiro[3.3]heptan-6-yl)-9-[[2-(trifluoromethyl)phenyl]methyl]purin-2-amine], for which the EC50 at human CB1 receptors is more than 10 µM.

For `Cc1nonc1Cn1cnc2c(N3CCN(C)CC3)nc(C(C)(C)C)nc21` [Example 144, 3-[[2-tert-butyl-6-(4-methylpiperazin-1-yl)purin-9-yl]methyl]-4-methyl-1,2,5-oxadiazole], the EC50 on human CB1 receptors is more than 10 µM.

On to `CC(C)(C)c1nc(N2CCC[C@@H]2CO)c2ncn(Cc3nnnn3C3CC3)c2n1` [Example 146, [(2R)-1-[2-tert-butyl-9-[(1-cyclopropyltetrazol-5-yl)methyl]purin-6-yl]pyrrolidin-2-yl]methanol], for which the EC50 on human CB1 receptors is more than 10 µM.

`CC(C)(C)c1nc(N2CC(F)(F)C2)c2ncn(Cc3ncccc3Cl)c2n1` [Example 160, 2-tert-butyl-9-[(3-chloropyridin-2-yl)methyl]-6-(3,3-difluoroazetidin-1-yl)purine] returned an EC50 at human CB1 receptors of more than 10 µM.

Take `CC(C)(C)c1nc(N2CC[C@H](O)C2)c2ncn(Cc3nnnn3C(C)(C)C)c2n1` [Example 166, (3S)-1-[2-tert-butyl-9-[(1-tert-butyltetrazol-5-yl)methyl]purin-6-yl]pyrrolidin-3-ol]: the concentration giving a half-maximal response (EC50) on human CB1 receptors was more than 10 µM.
